The IC50 is the point on the concentration scale where inhibition reaches its midpoint. As usually defined, the inhibition is the drop in the measured response relative to a control, in per cent.

Results filed as inconclusive are left out. Activity calls are given as the source filed them. How the calls were made is not given here.

35 compounds from PubChem BioAssay AID463136 (University of Pittsburgh Molecular Library Screening Center, 2010) can be followed below.

Test [1] has as its system HCS imaging, dynein-mediated cargo transport inhibition. Put plainly: dynein cargo transport inhibitors, potency, dose response, imaging, high-content imaging (AID 463136).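 Further: mouse mammary adenocarcinoma 3617.4 cells expressing GFP-tagged rat glucocorticoid receptor.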
Assay in test [2]: as above
The following applies: HCS imaging, dynein-mediated cargo transport inhibition; inhibition at max concentration; at 50 µM; stronger effect = higher value.

With `O=C1C(Cl)=C(N2CCCCC2)C(=O)C(Cl)=C1c1cnc(N2CCCCC2)s1`, the IC50 in test [1] was 33.2 µM. Besides, in test [2], the inhibition turned out to be 94.6%.

With `N#C/C(=C\c1cccs1)C(=O)c1ccccc1Cl`, the IC50 in test [1] is > 50 µM (inactive). Moreover, the inhibition in test [2] turned out to be 63.4%.

For the compound `CC(C)(C)c1cc(CN(CCO)CCO)cc(C(C)(C)C)c1O`, the IC50 in test [1] was > 50 µM (inactive). Also, in test [2], the inhibition stood at 33.9%.

As for `CCCCNc1ccc2c3c(cccc13)C(=O)N(CCCC)C2=O`, the IC50 in test [1] is > 50 µM (inactive). The inhibition in test [2] stood at 13.5%.

In the case of `O=C(CCl)Nc1cc(SCC(O)CO)cc([N+](=O)[O-])c1` (stereo not given), the half-maximal inhibitory concentration (IC50) in test [1] was 10.5 µM. For the same compound, in test [2], the inhibition came to 88%.

Regarding `CCN1/C(=C/c2ccc3ccc(C)cc3[n+]2CC)Sc2ccccc21`, in test [1], the IC50 is 2.13 µM. For the same compound, the inhibition in test [2] amounted to 98.5%.

On to `O=C(OCn1ncc(Br)c(Br)c1=O)c1c(F)cccc1F`, for which the half-inhibitory concentration (IC50) in test [1] was 18.5 µM. In test [2], the inhibition stood at 81.6%.

Take `N#Cc1cccc(N=c2ssnc2Cl)c1`: in test [1], the IC50 was > 50 µM (inactive). In addition, the inhibition in test [2] worked out at 14.7%.

With `O=C(/C(=C/c1ccc(Cl)cc1)c1nc2ccccc2[nH]1)c1cccs1`, the 50% inhibitory concentration (IC50) in test [1] was 24.9 µM. The inhibition in test [2] is 81.7%.

For the compound `COc1ccc2c(c1)c1ccc3c(c1n2C)C(=O)C=CC3=O`, in test [1], the IC50 was 14.5 µM. In addition, in test [2], the inhibition amounted to 93.1%.

In the case of `O=C1C=CC(O)(c2cc(=O)c3c(O)cc(O)cc3o2)C=C1`, the IC50 in test [1] was 5.9 µM. In addition, in test [2], the inhibition came out at 86.7%.

As for `CN1C(=O)NC(=O)/C(=C/c2ccc([N+](=O)[O-])s2)C1=O`, the concentration for half-maximal inhibition (IC50) in test [1] was 12 µM. Further, the inhibition in test [2] was 84.7%.

For the compound `COC(CNC(=O)c1ccc2c3c(onc13)-c1ccccc1C2=O)OC`, the IC50 in test [1] is 29.3 µM. For the same compound, the inhibition in test [2] worked out at 99.6%.

For `Cn1ncc(S(=O)(=O)Cc2ccccc2)c(Cl)c1=O`, the IC50 in test [1] was > 50 µM (inactive). For the same compound, in test [2], the inhibition came out at 10.6%.

Regarding `O=C(NCc1cccnc1)/C(=C/c1ccc(-c2cccc(Cl)c2)o1)S(=O)(=O)c1ccccc1`, the IC50 in test [1] was > 50 µM (inactive). Also, in test [2], the inhibition worked out at 42%.

For `CCCCCCN(C(=O)CCl)c1ccccc1`, in test [1], the 50% inhibitory concentration (IC50) was 17.2 µM. For the same compound, in test [2], the inhibition stood at 80.3%.

In the case of `COc1ccc(N=C2S/C(=C\c3ccc(N4CCOCC4)o3)C(=O)N2CCc2c[nH]c3ccccc23)cc1`, the IC50 in test [1] is 27.1 µM. Moreover, in test [2], the inhibition stood at 127%.

For the compound `CCOC(=O)c1c(NC(=S)N2CCOCC2)sc2c1CCN(C(=O)OCC)C2`, the IC50 in test [1] is 33.2 µM. The inhibition in test [2] worked out at 74%.

For `O=C(CCl)Nc1cc(-c2ccccc2)nn1-c1ccccc1`, in test [1], the IC50 was 11.8 µM. Also, the inhibition in test [2] stood at 81.4%.

In the case of `CCOC(=O)c1c(NC(=O)CCl)sc(CN(C)C)c1-c1ccccc1`, the IC50 in test [1] is 29.9 µM. In test [2], the inhibition was found to be 74.1%.

Consider `C=C1C(=O)O[C@H]2C[C@@H](C)[C@@H]3C=CC(=O)[C@@]3(C)C[C@H]12`, for which the 50% inhibitory concentration (IC50) in test [1] is 8.71 µM. The inhibition in test [2] is 89.6%.

For `CCn1c(SCC(=O)N2CCOCC2)nc2oc3c(Cl)cc(Cl)cc3c(=O)c2c1=O`, the half-inhibitory concentration (IC50) in test [1] is 33 µM. Besides, the inhibition in test [2] amounted to 78.9%.

With `N#CC(C#N)=C1C=CC=CN1/C(=C\c1ccco1)C(=O)c1ccccc1`, the IC50 in test [1] was > 50 µM (inactive). Besides, the inhibition in test [2] was determined as 19.2%.

On to `Cc1ccc(NC(=O)c2cc(N3C(=O)C=CC3=O)ccc2N2CCOCC2)cc1`, for which the IC50 in test [1] is > 50 µM (inactive). The inhibition in test [2] was -6.6%.

Regarding `O=C1C=C(NC2=CC3OC(c4ccccc4)OCC3OC2=O)CCC1` (stereo not given), the IC50 in test [1] was > 50 µM (inactive). Besides, the inhibition in test [2] came out at 13%.

Consider `O=C(CCl)Nc1cccc(Oc2ccccc2)c1`, for which, in test [1], the IC50 was 38.8 µM. Also, the inhibition in test [2] was 56.5%.

For `Cn1cc(C(=O)CCl)c2ccccc21`, the IC50 in test [1] is 22.5 µM. In test [2], the inhibition was 75%.

With `C#CC(=O)N(c1ccc(OC)cc1OC)C(C(=O)NC1CCCC1)c1cccs1` (stereo not given), the IC50 in test [1] is > 50 µM (inactive). The inhibition in test [2] worked out at 0.987%.

Take `COc1cccc(-n2nc(C#N)c(Cl)cc2=O)c1`: in test [1], the IC50 is 11.2 µM. Moreover, the inhibition in test [2] was 48.5%.

For `O=C(O)c1ccc(NC2=C(Cl)C(=O)c3ccccc3C2=O)cc1`, the IC50 in test [1] is 15.2 µM. Moreover, in test [2], the inhibition is 71.1%.

Take `O=C(Nc1ccc(Cl)cc1)/C(=C/c1cccc(O)c1)c1nc2ccccc2s1`: in test [1], the IC50 was > 50 µM (inactive). Besides, the inhibition in test [2] amounted to 40.7%.

Regarding `COc1cc(/C=C2\COC/C(=C\c3ccc(O)c(OC)c3)C2=O)ccc1O`, the IC50 in test [1] was 39.7 µM. Moreover, the inhibition in test [2] stood at 64.3%.

In the case of `O=C(CCl)N(c1ccc(Cl)cc1)c1c[nH]c2ccccc12`, the IC50 in test [1] was > 50 µM (inactive). In test [2], the inhibition turned out to be 10.3%.

Take `Nc1cccc2c1C(=O)N(C(=O)/C=C/c1cccc(F)c1)C2=O`: the IC50 in test [1] was > 50 µM (inactive). In test [2], the inhibition is 14.3%.

Turning to `O=c1c2ccccc2sn1-c1ccccc1`, the IC50 in test [1] is 12.7 µM. In addition, in test [2], the inhibition was determined as 90.4%.
